Columns and labels:
[1] = system: HaCaT cells; test: In vitro cell cytotoxicity (MTT) assay on HaCaT cells; assay type: cell-based, human
Excerpt: HaCaT (human, adult, low calcium, high temperature, human adult skin keratinocytes) cells were obtained from the IMB (Institute of Medical Biology) Skin Cell Bank. Fetal bovine serum (FBS), Dulbecco's minimum essential medium (DMEM) and trypsin EDTA solution were purchased from GE healthcare life sciences, Utah. Penicillin/streptomycin, dimethyl sulfoxide (DMSO), and phosphate buffered saline (PBS) were from Fisher Scientific (Singapore). Para-phenylenediamine (PPD) was purchased from Sigma Aldrich (Singapore). PPD analogues such as Dimer, trimer, ethyl hexyl para-phenylenediamine (EHPPD), hexyl para-phenylenediamine (HPPD), Bandrowski base (BB) were synthesized in house.
Cell viability was essentially determined using the MTT assay as described in the literature. The HaCaT cells were grown in DMEM with 10% FBS and 1% penicillin/streptomycin. The cells in T-75 cm^2 culture flasks were incubated with 5% CO2 at 37° C. in a humidified incubator. The HaCaT cells were grown to expected confluency and then they were harvested by trypsinizing the cell with 0.25% trypsin/EDTA and incubated at 37° C. for 5 min to obtain the complete cell detachment. After the incubation, cell pellets were resuspended, and washed twice with 1×PBS. The cell suspension in 1×PBS was counted and adjusted to 1×10^5/mL. A HaCaT keratinocyte suspension (100 μL in 1×PBS) with a cell concentration of 1×10^5 cells/mL) and a test solution (100 μL in milli-Q water) were combined in each well of two 96-well plates. Test solutions with a desired concentration were prepared by serial dilutions of the stock solutions with 1×PBS.
For the cytotoxicity experiment, cells were seeded at a density of 5×10^3 in 200 ul of medium into each well of 96-well plates. Cells were seeded as three sets of four replicates for each concentration. After 24 h of incubation, the cells were washed with PBS and cultured for 72 h with 200 ul of 10% FBS containing DMEM medium, together with the different concentrations of the test compounds ranging from 500 μM to 1.9 μM for PPD and analogues 1-5 and standard in a serial dilution. Then the medium was removed and 100 μl of MTT [3-(4,5-dimethylthiazol-2yl)-2,5-diphenyl-2H-tetrazolium bromide](1 mg/ml) (Alfa Aesar, Singapore) in PBS was added. At the end of 4 h incubation, the plates were removed from the incubator and plates were shaken for 5 min. The absorbance at 570 nm was determined using Bio-Tek plate reader. The cell viability rates were calculated from absorbance readings and represented as percentages of control value (untreated cells).

[2] = system: cysteine peptide (Ac-RFAACAA-COOH); test: Direct Peptide Reactivity Assay, cysteine peptide; conditions: for % of Cysteine depletion, Avg / % of Cysteine depletion, Rep 2 / % of Cysteine depletion, Rep 3 / Reactivity Class: 1:10; for % of Cysteine depletion, Rep 1: peptide 0.02 mM : test chemical 0.2 mM (1:10); for Reactivity Class: cysteine
Description: For cysteine DPRA, an additional step was performed.
(§1) The mass spectrometric analysis was performed by use of a AB SCIEX QTRAP 5500 tandem mass spectrometry (MS/MS) system (AB SCIEX, Framingham, Mass., USA) operating in triple quadrupole positive mode (ESI+) equipped with an AB Sciex Turbo Ion Spray interface. Acquisition and analysis of data were performed with Analyst software ver. 1.6.2 (Applied Biosystems).

[3] = system: lysine peptide (Ac-RFAAKAA-COOH); test: Direct Peptide Reactivity Assay, lysine peptide; conditions: for % of Lysine depletion, Avg / % of Lysine depletion, Rep 2 / % of Lysine depletion, Rep 3 / Reactivity Class: 1:50; for % of Lysine depletion, Rep 1: peptide 0.02 mM : test chemical 1 mM (1:50); for Reactivity Class: lysine
Description: as §1

[4] = Skin permeation in vertical Franz diffusion cells; assay type: in vitro ADME, porcine; conditions: 8 h; for Skin permeation (in words): porcine skin
Description: Porcine ears were generously provided by the NUS Department of Surgery. The ears were frozen at −80° C. until use (up to 3 months) and thawed at room temperature on the day preceding the experiment. Prior to the experiment, the skin was separated from the cartilage and dermatomed to a thickness of ˜1.0 mm using an Acculan™ 3Ti dermatome (Aesculap, Inc., B. Braun, USA).
The PPD and derivatives were dissolved in deionized water at 1% w/v. The PPD and PPD derivatives 1-5 solutions were purged with argon gas to minimize oxidation of the donor solution.
Skin penetration studies were carried out using vertical Franz diffusion cells (PermeGear, USA) immersed in a 37° C. water bath. The donor and receptor volumes were 900 µL and 5 mL, respectively; the mean surface area of penetration was 0.64 cm^2. Upon insertion of the skin pieces into the Franz cells, the skin was equilibrated for 45 min with PBS in the receptor compartment. After equilibration, the skin's trans-epidermal water loss (TEWL) was measured using an Aquaflux AF300 (Biox, UK) to assess the integrity of the skin's stratum corneum barrier. The donor solution, consisting of PPD or derivative 1-5 (n=3 Franz cells each), was then added to the donor compartment and the penetration experiments were conducted for 8 h. The receptor solutions were continuously stirred with magnetic stirrers. At fixed time points, aliquots of 200 μL were taken from the receptor solution of each cell and the receptor solution topped up with 200 μL of fresh PBS. At the end of the experiment, the donor and receptor solutions were removed and the cells dismantled. For the purpose of mass balance on the PPD, PPD derivatives 1-5 the skin pieces and swabs of their outer surfaces were collected and stored in acetonitrile for PPD or derivative 1-5 extraction. The donor solution as well as PBS used to thoroughly wash each part of the Franz cells were also collected.
PPD, PPD derivatives 1-5 and metabolite concentrations in all permeation and mass balance samples were measured by LCMS. PPD steady state fluxes and permeability coefficients were calculated by fitting the solution to Fick's second law of diffusion at the steady state to the linear part of each experimental cumulative amount curve.
The validated method LCMS was applied to quantify PPD, PPD derivative 1-5 and metabolites from skin permeation study samples. FIGS. 3 and 4 show LCMS spectra for the identification of PPD and PPD derivatives 1 and 2 and metabolites from skin permeation study experiment.

[5] = system: cysteine and lysine peptides; test: Direct Peptide Reactivity Assay, mean of cysteine and lysine depletion (FIG. 12); conditions: cysteine 1:10 / lysine 1:50 model
Description: Direct reactivity of test chemical to lysine-based synthetic peptide was determined in reactions containing 100 mM ammonium acetate buffer (pH 10.2). The final concentration of lysine peptide was 20 μM in a final reaction volume of 0.3 ml. Direct reactivity of test chemicals to cysteine-based synthetic peptide was determined in 100 mM Sodium Phosphate buffer of pH 7.5.
For the DPRA, incubation mixtures were prepared using each peptide to test compound ratios of both 1:10 for cysteine peptide and 1:50 for lysine peptide, according to Table 19. […] Sample reactions were initiated by adding 3 μl of a test chemical stock solution for cysteine and 15 μl stock solution for lysine peptide. These mixtures were then placed in a temperature-controlled shaking incubator at 25° C.
At each time point (20 mins/24 hours), the incubation mixtures were quenched with 75 μL of 95% ACN/H2O, and mildly vortexed (600 rpm, 3 seconds). For Lysine DPRA experiment, 10 μl of aliquot was diluted with 2% ACN/H2O, vortexed and stored at −80° C. until analysis by LC-MS/MS. For cysteine DPRA, an additional step was performed. 10 μl of cysteine reaction mixture, at time points 20 min and 24 h were diluted in 180 μl of 2% ACN/H2O. To which, a 10 μl aliquot of a 16 mM dithiothreitol solution (prepared in water) was then added, and samples were heated in a 45° C. oven for 30 min, then allowed to cool to room temperature prior to analysis. The peptide depletion (PD) percentage was obtained using this equation.

[6] = Homo sapiens, HaCaT, 72 h, 72 h incubation, MTT

COc1ccc(CNc2ccc(Nc3ccc(NCc4ccc(OC)cc4)cc3)cc2)cc1 [PPD derivative 12]
IC50 [1, 6]: 4.3 µM

CC(C)(C)c1cc(O)ccc1O [Tertbutylhydroquinone, reference compound]
IC50 [1, 6]: 27.9 µM

O=C1C=CC(=O)C=C1 [p-Benzoquinone, p-benzoquinone, reference compound]
% of Cysteine depletion, Avg ([2]; 20 min): 72.8% | % of Cysteine depletion, Rep 2 ([2]; 20 min): 73.7% | % of Cysteine depletion, Rep 3 ([2]; 20 min): 72.0% | % of Cysteine depletion, Rep 1 ([2]; 20 min): 72.7% | % of Cysteine depletion, Avg ([2]; 24 h): 89.7% | % of Cysteine depletion, Rep 2 ([2]; 24 h): 89.5% | % of Cysteine depletion, Rep 3 ([2]; 24 h): 90% | % of Cysteine depletion, Rep 1 ([2]; 24 h): 89.6% | Reactivity Class ([2]; 20 min): High | Reactivity Class ([2]; 24 h): High | % of Lysine depletion, Avg ([3]; 20 min): 21.0% | % of Lysine depletion, Rep 2 ([3]; 20 min): 20.6% | % of Lysine depletion, Rep 3 ([3]; 20 min): 20% | % of Lysine depletion, Rep 1 ([3]; 20 min): 22.5% | % of Lysine depletion, Avg ([3]; 24 h): 88.7% | % of Lysine depletion, Rep 2 ([3]; 24 h): 87.5% | % of Lysine depletion, Rep 3 ([3]; 24 h): 91.6% | % of Lysine depletion, Rep 1 ([3]; 24 h): 87.0% | Reactivity Class ([3]; 20 min): Low | Reactivity Class ([3]; 24 h): High

COc1cccc2c1C(=O)c1c(O)c3c(c(O)c1C2=O)C[C@@](O)(C(=O)CO)C[C@@H]3O[C@H]1C[C@H](N)[C@H](O)[C@H](C)O1 [Doxorubicin, reference compound]
IC50 [1, 6]: < 0.39 µM

CC1=CC(=O)c2ccccc2C1=O [Menadione, reference compound]
IC50 [1, 6]: 3.56 µM

Cc1ccc(CNc2ccc(Nc3ccc(NCc4ccc(C)cc4)cc3)cc2)cc1 [PPD derivative 13, N^4-(p-tolylmethyl)-N^1-[4-(p-tolylmethylamino)phenyl]benzene-1,4-diamine]
IC50 [1, 6]: 5.2 µM

O=[N+]([O-])c1ccc(CNc2ccc(Nc3ccc(NCc4ccc([N+](=O)[O-])cc4)cc3)cc2)cc1 [PPD derivative 11, N^4-[(4-nitrophenyl)methyl]-N^1-[4-[(4-nitrophenyl)methylamino]phenyl]-benzene-1,4-diamine]
IC50 [1, 6]: 6.4 µM

CCOC(=O)/C=C\C(=O)OCC [Diethylmaleate, reference compound]
IC50 [1, 6]: > 100 µM

CCCCCCOc1cc(Nc2ccc(N)cc2)ccc1N [PPD derivative 5, 4-Amino-(3-hexyloxy)-4′-aminodiphenylamine]
% Parent compound Penetrated (mean) ([4]; 1% W/V applied): 0% | % Parent compound Recovery (mean) ([4]; 1% W/V applied): 98% | % converted to metabolite (mean) ([4]; 1% W/V applied): 0.0118% | Skin permeation (in words) [4]: did not permeate the skin at all | Skin permeation (in words) ([4]; listed as PPD 5): impermeable | % of Cysteine depletion, Avg ([2]; 20 min): 51.2% | % of Cysteine depletion, Rep 2 ([2]; 20 min): 52.9% | % of Cysteine depletion, Rep 3 ([2]; 20 min): 49.9% | % of Cysteine depletion, Rep 1 ([2]; 20 min): 50.9% | % of Cysteine depletion, Avg ([2]; 24 h): 53.8% | % of Cysteine depletion, Rep 2 ([2]; 24 h): 53.8% | % of Cysteine depletion, Rep 3 ([2]; 24 h): 54.1% | % of Cysteine depletion, Rep 1 ([2]; 24 h): 53.5% | % of Lysine depletion, Avg ([3]; 20 min): 6.3% | % of Lysine depletion, Rep 2 ([3]; 20 min): 5.92% | % of Lysine depletion, Rep 3 ([3]; 20 min): 6.2% | % of Lysine depletion, Rep 1 ([3]; 20 min): 6.76% | % of Lysine depletion, Avg ([3]; 24 h): 14.3% | % of Lysine depletion, Rep 2 ([3]; 24 h): 15.2% | % of Lysine depletion, Rep 3 ([3]; 24 h): 13.8% | % of Lysine depletion, Rep 1 ([3]; 24 h): 13.8% | Reactivity Class ([3]; 20 min): No or Minimal | Reactivity Class ([3]; 24 h): Low | IC50 ([1]; 72 h incubation, MTT): 14.3 µM

CCC(C)(C)C(=O)O[C@H]1C[C@@H](C)C=C2C=C[C@H](C)[C@H](CC[C@@H]3C[C@@H](O)CC(=O)O3)[C@H]21 [Simvastatin, reference compound]
IC50 ([1]; Homo sapiens, HaCaT): 9.15 µM | IC50 [1, 6]: 28.6 µM

CCCCCCNc1ccc(N)cc1OCCCCCC [PPD derivative 16, (N^1-hexyl)(2-hexyloxy)-1,4-diaminobenzene]
IC50 ([1]; 72 h incubation, MTT): 140 µM | Sensitizing potential predicted from mean peptide depletion [5]: moderate sensitizer

OC[C@H]1O[C@@H](O[C@H]2[C@H](O)[C@@H](O)C(O)O[C@@H]2CO)[C@H](O)[C@@H](O)[C@H]1O (stereo partly shown) [Lactose, reference compound]
% of Cysteine depletion, Avg ([2]; 20 min): 0% | % of Cysteine depletion, Rep 2 ([2]; 20 min): 0% | % of Cysteine depletion, Rep 3 ([2]; 20 min): 0% | % of Cysteine depletion, Rep 1 ([2]; 20 min): 0% | % of Cysteine depletion, Avg ([2]; 24 h): 0.6% | % of Cysteine depletion, Rep 2 ([2]; 24 h): 1% | % of Cysteine depletion, Rep 3 ([2]; 24 h): 1% | % of Cysteine depletion, Rep 1 ([2]; 24 h): 0% | Reactivity Class ([2]; 20 min): No or Minimal | Reactivity Class ([2]; 24 h): No or Minimal | % of Lysine depletion, Avg ([3]; 20 min): 0% | % of Lysine depletion, Rep 2 ([3]; 20 min): 0% | % of Lysine depletion, Rep 3 ([3]; 20 min): 0% | % of Lysine depletion, Rep 1 ([3]; 20 min): 0% | % of Lysine depletion, Avg ([3]; 24 h): 0% | % of Lysine depletion, Rep 2 ([3]; 24 h): 0% | % of Lysine depletion, Rep 3 ([3]; 24 h): 0% | % of Lysine depletion, Rep 1 ([3]; 24 h): 0% | Reactivity Class ([3]; 20 min): No or Minimal | Reactivity Class ([3]; 24 h): No or Minimal

Oc1ccc(CNc2ccc(Nc3ccc(NCc4ccc(O)cc4)cc3)cc2)cc1 [PPD derivative 14, 4-[[4-[4-[(4-hydroxyphenyl)methylamino]anilino]anilino]methyl]phenol]
IC50 [1, 6]: 5.4 µM

Reference: patent publication US11129782B2, “Derivatives of PPD useful for coloring hair and skin” (National University of Singapore, priority 2017, dated 2021)
